This passage reports IC50 results from the Kinase Knowledgebase extract (Sharma et al. 2016).

The structures appear in SMILES notation.

One assay concerns the target CDK2 (human) (UniProt P24941). The experiment in a line: Enzyme Assay.
A further assay concerns the target EGFR (human) (UniProt P00533).
The next assay deals with MAPK14 (human) (UniProt Q16539). The experiment in a line: Inhibition of MAPK14 Kinase Activity.
Sequence of MAPK14 (human) (Q16539 whole entry, looked up): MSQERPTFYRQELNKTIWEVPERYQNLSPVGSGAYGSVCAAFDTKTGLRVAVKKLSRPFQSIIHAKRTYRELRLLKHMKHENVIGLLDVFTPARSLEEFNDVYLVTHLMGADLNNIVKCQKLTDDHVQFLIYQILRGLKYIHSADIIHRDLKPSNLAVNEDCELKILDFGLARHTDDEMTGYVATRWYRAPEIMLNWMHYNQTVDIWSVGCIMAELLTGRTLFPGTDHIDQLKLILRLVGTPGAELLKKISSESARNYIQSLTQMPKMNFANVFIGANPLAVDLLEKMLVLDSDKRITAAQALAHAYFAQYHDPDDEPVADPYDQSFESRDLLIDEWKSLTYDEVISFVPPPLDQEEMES

Sequence of EGFR (human) (P00533 whole entry, looked up): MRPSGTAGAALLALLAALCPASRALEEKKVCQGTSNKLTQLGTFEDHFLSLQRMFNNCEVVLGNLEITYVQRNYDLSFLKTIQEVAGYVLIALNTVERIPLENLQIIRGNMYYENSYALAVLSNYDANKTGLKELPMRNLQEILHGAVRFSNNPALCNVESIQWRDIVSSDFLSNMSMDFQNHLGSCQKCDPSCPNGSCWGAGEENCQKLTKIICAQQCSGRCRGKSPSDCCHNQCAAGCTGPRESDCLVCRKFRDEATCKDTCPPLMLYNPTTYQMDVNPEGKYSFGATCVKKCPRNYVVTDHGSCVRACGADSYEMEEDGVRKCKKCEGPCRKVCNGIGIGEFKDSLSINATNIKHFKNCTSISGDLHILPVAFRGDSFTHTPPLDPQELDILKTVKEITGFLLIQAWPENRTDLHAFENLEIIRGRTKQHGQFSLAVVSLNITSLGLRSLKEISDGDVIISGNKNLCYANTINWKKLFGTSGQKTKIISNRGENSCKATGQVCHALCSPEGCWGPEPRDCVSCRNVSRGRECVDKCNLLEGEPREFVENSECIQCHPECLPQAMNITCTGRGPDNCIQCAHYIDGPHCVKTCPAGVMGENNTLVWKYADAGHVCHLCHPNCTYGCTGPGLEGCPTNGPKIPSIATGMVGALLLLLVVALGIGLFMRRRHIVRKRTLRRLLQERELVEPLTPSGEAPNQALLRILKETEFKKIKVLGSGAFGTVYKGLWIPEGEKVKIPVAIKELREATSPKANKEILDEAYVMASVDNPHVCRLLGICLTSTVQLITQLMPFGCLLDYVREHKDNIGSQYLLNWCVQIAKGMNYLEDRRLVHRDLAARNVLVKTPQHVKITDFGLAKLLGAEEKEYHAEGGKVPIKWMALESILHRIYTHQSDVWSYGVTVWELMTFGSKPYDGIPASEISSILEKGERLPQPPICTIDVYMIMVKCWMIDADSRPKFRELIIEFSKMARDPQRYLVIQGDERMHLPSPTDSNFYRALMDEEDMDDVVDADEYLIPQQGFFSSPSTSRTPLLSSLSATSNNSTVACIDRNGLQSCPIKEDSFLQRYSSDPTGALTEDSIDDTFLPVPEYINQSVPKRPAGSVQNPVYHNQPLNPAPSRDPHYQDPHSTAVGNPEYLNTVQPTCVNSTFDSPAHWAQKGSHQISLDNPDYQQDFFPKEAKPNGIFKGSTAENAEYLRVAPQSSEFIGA

At CDK2 (human), `CCCS(=O)(=O)Nc1ccc(F)c(C(OC)c2c[nH]c3ncc(OC)cc23)c1F` (configuration not stated) yielded an IC50 of no more than 10 µM.

`O=C(Nc1ccc(F)c(C(O)c2c[nH]c3ncc(-c4cccnc4)cc23)c1F)OCc1ccccc1` (configuration not stated) returned an IC50 against EGFR (human) of no more than 10 µM.

As for `CCCS(=O)(=O)Nc1ccc(F)c(C(=O)c2c[nH]c3ncc(-c4ccc(OC)cc4)cc23)c1F`, the IC50 on EGFR (human) is no more than 10 µM.

On to `O=C(c1cccc(O)c1)c1c[nH]c2ncc(Nc3ccccc3)cc12`, for which the IC50 against EGFR (human) and against MAPK14 (human) was no more than 10 µM each time.

Consider `COc1ccc(-c2cnc3[nH]cc(C#Cc4ccccc4)c3c2)cc1OC`, for which the IC50 against EGFR (human) was no more than 10 µM.

Turning to `Nc1cccc(-c2cnc3[nH]cc(C(=O)c4cccc(O)c4)c3c2)c1`, the IC50 at EGFR (human) and at MAPK14 (human) was no more than 10 µM in each case.

Consider `CCCS(=O)(=O)Nc1ccc(F)c(C(=O)c2c[nH]c3ncc(OC)cc23)c1F`, for which the IC50 against CDK2 (human) and at MAPK14 (human) was no more than 10 µM throughout.

As to `Nc1cccc(-c2cnc3[nH]cc(C(=O)c4cc(O)ccc4F)c3c2)c1`, the half-inhibitory concentration (IC50) against EGFR (human) and on MAPK14 (human) was no more than 10 µM throughout.

For `Nc1cccc(-c2cnc3[nH]cc(C(=O)c4cccc(O)c4F)c3c2)c1`, the 50% inhibitory concentration (IC50) against EGFR (human) and on MAPK14 (human) was no more than 10 µM in each case.

Regarding `OCCOc1ccc(F)c(Cc2c[nH]c3ncc(-c4cccnc4)cc23)c1F`, the IC50 against CDK2 (human) was no more than 10 µM.

For the compound `CCCC(=O)Nc1ccc(F)c(Cc2c[nH]c3ncc(-c4cccnc4)cc23)c1F`, the IC50 at CDK2 (human) is no more than 10 µM.

In the case of `CS(=O)(=O)Nc1ccc(F)c(C(=O)c2c[nH]c3ncc(-c4cccc(C(N)=O)c4)cc23)c1F`, the half-maximal inhibitory concentration (IC50) at MAPK14 (human) is no more than 10 µM.

`c1ccc2c(Cc3c[nH]c4ncccc34)cccc2c1` gave an IC50 against MAPK14 (human) of no more than 10 µM.

As to `NC(=O)c1cccc(-c2cnc3[nH]cc(C(=O)c4cc(O)ccc4F)c3c2)c1`, the IC50 against MAPK14 (human) is no more than 10 µM.

As to `O=C(c1cccc(O)c1F)c1c[nH]c2ncc(-c3cccs3)cc12`, the IC50 on MAPK14 (human) is no more than 10 µM.

The compound `CS(=O)(=O)Nc1ccc(F)c(C(=O)c2c[nH]c3ncc(-c4ccccc4)cc23)c1F` had an IC50 at MAPK14 (human) of no more than 10 µM.

With `Nc1ccc(F)c(C(=O)c2c[nH]c3ncc(-c4cccnc4)cc23)c1F`, the IC50 at MAPK14 (human) is no more than 10 µM.

As for `Cc1c(O)cccc1C(=O)c1c[nH]c2ncc(-c3cccnc3)cc12`, the 50% inhibitory concentration (IC50) against MAPK14 (human) was no more than 10 µM.

For `CC(=O)Nc1cccc(-c2cnc3[nH]cc(C(=O)c4cc(O)ccc4F)c3c2)c1`, the IC50 against EGFR (human) and at MAPK14 (human) was no more than 10 µM throughout.

With `CS(=O)(=O)Nc1cccc(-c2cnc3[nH]cc(C(=O)c4c(F)ccc(NS(C)(=O)=O)c4F)c3c2)c1`, on MAPK14 (human), the IC50 is no more than 10 µM.

Consider `Oc1cc(O)cc(Cc2c[nH]c3ncc(-c4ccsc4)cc23)c1`, for which the IC50 on MAPK14 (human) was no more than 10 µM.
